According to US20220330549A1, “USE OF N-BENZYLBENZAMIDE-BASED COMPOUND AS HERBICIDE” (Northwest A&F University, priority 2020, published 2022):

What was measured:
Assay type in all cases: in vivo
Barnyard grass [1] = experiment: Herbicidal activity test for indoor pre-emergence soil treatment; design: key: level 1-9; higher = more weed remaining vs blank control; settings: 150 g a.i./ha, visual inspection 21 days after treatment
Description: (§1) The herbicidal activity test for indoor pre-emergence soil treatment was performed with some of the N-benzylbenzamide-based compounds of general formula I or II with reference to the method of NY/T 1155.3-2006. Neutral sandy loam soil having an organic content of ≤2% was added to fill ⅘ of the pot, and the soil was completely moistened by infiltrating irrigation from the bottom of the pot. The seeds of the test weed were evenly spread on the soil surface, and then covered by 0.5 cm to 2.0 cm of soil depending on the seed size. Representative compounds in the examples were used to prepare emulsifiable concentrates (10%), and spray treatments to the soil were performed 24 hours after the sowing with the test agents diluted with water, at a spraying dosage of 150 g(a.i.)/ha. Then, the results were investigated by visual inspection 21 days after the treatments. The herbicidal activity of the agent was evaluated on a scale of 1-9 levels according to the symptoms and severity of damage to the test weeds.
(§2) Level 2: equivalent to 0 to 2.5% of the weed in the blank control area;
(§3) Level 3: equivalent to 2.6 to 5% of the weed in the blank control area;
(§4) Level 4: equivalent to 5.1 to 10% of the weed in the blank control area;
(§5) Level 5: equivalent to 10.1 to 15% of the weed in the blank control area;
(§6) Level 6: equivalent to 15.1 to 25% of the weed in the blank control area;
(§7) Level 7: equivalent to 25.1 to 35% of the weed in the blank control area;
(§8) Level 8: equivalent to 35.1 to 67.5% of the weed in the blank control area; and
(§9) Level 9: equivalent to 67.6 to 100% of the weed in the blank control area.

Piemarker [2] = experiment: as above; design: key: level 1-9; higher = more weed remaining vs blank control; settings: 150 g a.i./ha, visual inspection 21 days after treatment
Description: as §1, §2, §3, §4, §5, §6, §7, §8, §9

green bristlegrass [3] = experiment: as above; design: key: level 1-9; higher = more weed remaining vs blank control; settings: 150 g a.i./ha, visual inspection 21 days after treatment
Description: as §1, §2, §3, §4, §5, §6, §7, §8, §9

Amaranthus retroflexus [4] = experiment: as above; design: key: 1-9 levels; higher = more weed remaining vs blank control; settings: 150 g a.i./ha, visual inspection 21 days after treatment
Description: as §1, §2, §3, §4, §5, §6, §7, §8, §9

Digitaria sanguinalis [5] = experiment: as above; design: key: 1-9 levels; higher = more weed remaining vs blank control; settings: 150 g a.i./ha, visual inspection 21 days after treatment
Description: as §1, §2, §3, §4, §5, §6, §7, §8, §9

Humulus scandens [6] = experiment: as above; settings: 150 g a.i./ha, visual inspection 21 days after treatment
Description: as §1, §2, §3, §4, §5, §6, §7, §8, §9

Amaranthus retroflexus [7] = experiment: Herbicidal activity test for indoor post-emergence spraying on stems and leaves; design: key: grade level by weed remaining vs blank control, e.g. 5 = 10.1-15%; settings: 150 g a.i./ha, visual inspection 21 days after treatment
Description: (§10) The post-emergence herbicidal activity test was performed with some of the N-benzylbenzamide-based compounds of general formula I or II with reference to the method of NY/T 1155.4-2006. […] After the sowing, the weed was moved to a greenhouse for regular cultivation. […] Then, the results were investigated by visual inspection 21 days after the treatments. […] Level 5: equivalent to 10.1 to 15% of the weed in the blank control area; Level 6: equivalent to 15.1 to 25% of the weed in the blank control area; Level 7: equivalent to 25.1 to 35% of the weed in the blank control area; Level 8: equivalent to 35.1 to 67.5% of the weed in the blank control area; and […]

Barnyard grass [8] = experiment: as above; design: key: grade level by weed remaining vs blank control, e.g. 5 = 10.1-15%; settings: 150 g a.i./ha, visual inspection 21 days after treatment
Description: as §10

Digitaria sanguinalis [9] = experiment: as above; design: key: grade level by weed remaining vs blank control, e.g. 5 = 10.1-15%; settings: 150 g a.i./ha, visual inspection 21 days after treatment
Description: as §10

Humulus scandens [10] = experiment: as above; design: key: grade level by weed remaining vs blank control, e.g. 5 = 10.1-15%; settings: 150 g a.i./ha, visual inspection 21 days after treatment
Description: as §10

Piemarker [11] = experiment: as above; design: key: grade level by weed remaining vs blank control, e.g. 5 = 10.1-15%; settings: 150 g a.i./ha, visual inspection 21 days after treatment
Description: as §10

green bristlegrass [12] = experiment: as above; design: key: grade level by weed remaining vs blank control, e.g. 5 = 10.1-15%; settings: 150 g a.i./ha, visual inspection 21 days after treatment
Description: as §10

Broadleaf weed = experiment: Post-emergence herbicidal activity test in a paddy field; design: key: level scale; higher level = more weed left vs blank control; settings: 150 g a.i./ha (penoxsulam control 250 g(a.i.)/h)
Description: (§11) The post-emergence herbicidal activity test was performed in a paddy field with some of the N-benzylbenzamide-based compounds of general formula I or II with reference to the method of GB/T 17980.40-2000. […] Spray treatments were performed in the stage where 4 leaves to 5 leaves were grown for the rice seedlings which was about 1 month after the sowing. Representative compounds in the examples were used to prepare emulsifiable concentrates (10%), and spray treatments were performed with the concentrates in water at a dosage of 150 g(a.i.)/ha, and repeated 4 times for each treatment, and the area was 50 m^2. 25 g/L of penoxsulam suspension was used as a control agent and applied at a dosage of 250 g(a.i.)/h. The results were investigated by a value estimating survey method 15 days and 30 days after the treatments. The relative weed population quantities were estimated by comparing each agent treated area with an adjacent blank control area, and the results of which were investigated with the following grading standard method using the overall coverage of the weed population as an indicator.
as §2, §3, §4, §5, §6, §7, §8, §9

Cyperaceae = experiment: as above; design: key: level scale; higher level = more weed left vs blank control; settings: 150 g a.i./ha (penoxsulam control 250 g(a.i.)/h)
Description: as §11, §2, §3, §4, §5, §6, §7, §8, §9

Gramineae = experiment: as above; design: key: level scale; higher level = more weed left vs blank control; settings: 150 g a.i./ha (penoxsulam control 250 g(a.i.)/h)
Description: as §11, §2, §3, §4, §5, §6, §7, §8, §9

Acalypha australis = experiment: Field test for weed control in a corn field; settings: for Post-emergence weed control effect, Acalypha australis: 150 g a.i./ha, after treatment
Description: (§12) The weed control efficacy field test was performed in a corn field with some of the N-benzylbenzamide-based compounds of general formula I or II with reference to the method of GB/T 17980.42-2000. […] Spray treatments were performed in the stage where 2 leaves to 5 leaves were grown for the corns after the sowing. Representative compounds in the examples were used to prepare emulsifiable concentrates (10%), and spray treatments were performed with the concentrates in water at a dosage of 150 g(a.i.)/ha, and repeated 4 times for each treatment, and the area was 20 m^2. Oil dispersion with 25% of mesotrione was used as a control agent and applied at a dosage of 150 g(a.i.)/h. […] The herbicidal activities of the agents were evaluated on a scale of 1-9 levels according to the symptoms and severity of damage to the test weeds.
as §2, §3, §4, §5, §6, §7, §8, §9

Amaranthus retroflexus [13] = experiment: Field test for weed control in a corn field; settings: for Post-emergence weed control effect, Amaranthus retroflexus: 150 g a.i./ha, 30 days after treatment
Description: as §12, §2, §3, §4, §5, §6, §7, §8, §9

Barnyard grass [14] = experiment: Field test for weed control in a corn field; settings: for Post-emergence weed control effect, Barnyard grass: 150 g a.i./ha, 30 days after treatment
Description: as §12, §2, §3, §4, §5, §6, §7, §8, §9

Chenopodium album = experiment: Field test for weed control in a corn field; settings: for Post-emergence weed control effect, Chenopodium album: 150 g a.i./ha, after treatment
Description: as §12, §2, §3, §4, §5, §6, §7, §8, §9

Convolvulus arvensis = experiment: Field test for weed control in a corn field; settings: for Post-emergence weed control effect, Convolvulus arvensis: 150 g a.i./ha, after treatment
Description: as §12, §2, §3, §4, §5, §6, §7, §8, §9

Digitaria sanguinalis [15] = experiment: Field test for weed control in a corn field; settings: for Post-emergence weed control effect, Digitaria sanguinalis: 150 g a.i./ha, after treatment
Description: as §12, §2, §3, §4, §5, §6, §7, §8, §9

Portulaca oleracea = experiment: Field test for weed control in a corn field; settings: for Post-emergence weed control effect, Portulaca oleracea: 150 g a.i./ha, after treatment
Description: as §12, §2, §3, §4, §5, §6, §7, §8, §9

Solanum nigrum = experiment: Field test for weed control in a corn field; settings: for Post-emergence weed control effect, Solanum nigrum: 150 g a.i./ha, 30 days after treatment
Description: as §12, §2, §3, §4, §5, §6, §7, §8, §9

goosegrass = experiment: Field test for weed control in a corn field; settings: for Post-emergence weed control effect, Goose grass: 150 g a.i./ha, after treatment
Description: as §12, §2, §3, §4, §5, §6, §7, §8, §9

green bristlegrass [16] = experiment: Field test for weed control in a corn field; settings: for Post-emergence weed control effect, Green bristlegrass: 150 g a.i./ha, after treatment
Description: as §12, §2, §3, §4, §5, §6, §7, §8, §9

nutgrass flatsedge = experiment: Field test for weed control in a corn field; settings: for Post-emergence weed control effect, Nutgrass flatsedge: 150 g a.i./ha, after treatment
Description: as §12, §2, §3, §4, §5, §6, §7, §8, §9

[17] = 150 g(a.i.)/ha, 21 days after treatments

Row | Compound | Herbicidal Activity Barnyard grass (Barnyard grass [1]) | Herbicidal Activity Piemarker (Piemarker [2]) | Herbicidal Activity Green bristlegrass (green bristlegrass [3]) | Herbicidal Activity Amaranthus retroflexus (Amaranthus retroflexus [4]) | Herbicidal Activity Digitaria sanguinalis (Digitaria sanguinalis [5]) | Herbicidal Activity Humulus scandens (Humulus scandens [6]) | Herbicidal Activity Amaranthus retroflexus (Amaranthus retroflexus [7]) | Herbicidal Activity Barnyard grass (Barnyard grass [8]) | Herbicidal Activity Digitaria sanguinalis (Digitaria sanguinalis [9]) | Herbicidal Activity Humulus scandens (Humulus scandens [10]) | Herbicidal Activity Piemarker (Piemarker [11]) | Herbicidal Activity Green bristlegrass (green bristlegrass [12]) | Herbicidal activity 15 days after treatment Broadleaf weed (Broadleaf weed) | Herbicidal activity 30 days after treatment Broadleaf weed (Broadleaf weed) | Herbicidal activity 15 days after treatment Cyperaceae (Cyperaceae) | Herbicidal activity 30 days after treatment Cyperaceae (Cyperaceae) | Herbicidal activity 15 days after treatment Gramineae (Gramineae) | Herbicidal activity 30 days after treatment Gramineae (Gramineae) | Post-emergence weed control effect, Acalypha australis (Acalypha australis) | Post-emergence weed control effect, Amaranthus retroflexus (Amaranthus retroflexus [13]) | other results
1 | COc1ccccc1C(=O)NCc1ccc(F)cc1 [Compound A02] | 1 | 2 (equivalent to 0 to 2.5% of the weed in the blank control area) | 2 (equivalent to 0 to 2.5% of the weed in the blank control area) | 3 (equivalent to 2.6 to 5% of the weed in the blank control area) | 1 | 4 (equivalent to 5.1 to 10% of the weed in the blank control area) | 1 | 1 | 1 | 1 | 1 | 2 (equivalent to 0 to 2.5% of the weed in the blank control area) | 1 | 1 | 1 | 1 | 1 | 1 | 1 | 1 | controlling effect on Acalypha australis (Acalypha australis; [17]): 1; controlling effect on Amaranthus retroflexus (Amaranthus retroflexus [13]; [17]): 1; Post-emergence weed control effect, Barnyard grass (Barnyard grass [14]): 1; controlling effect on barnyard grass (Barnyard grass [14]; [17]): 1; Post-emergence weed control effect, Chenopodium album (Chenopodium album): 1; controlling effect on Chenopodium album (Chenopodium album; [17]): 1; Post-emergence weed control effect, Convolvulus arvensis (Convolvulus arvensis): 1; controlling effect on Convolvulus arvensis (Convolvulus arvensis; [17]): 1; Post-emergence weed control effect, Digitaria sanguinalis (Digitaria sanguinalis [15]): 1; controlling effect on Digitaria sanguinalis (Digitaria sanguinalis [15]; [17]): 1; Post-emergence weed control effect, Portulaca oleracea (Portulaca oleracea): 1; controlling effect on Portulaca oleracea (Portulaca oleracea; [17]): 1; Post-emergence weed control effect, Solanum nigrum (Solanum nigrum): 1; controlling effect on Solanum nigrum (Solanum nigrum; [17]): 1; Post-emergence weed control effect, Goose grass (goosegrass): 1; controlling effect on goosegrass (goosegrass; [17]): 1; Post-emergence weed control effect, Green bristlegrass (green bristlegrass [16]): 1; controlling effect on green bristlegrass (green bristlegrass [16]; [17]): 1; Post-emergence weed control effect, Nutgrass flatsedge (nutgrass flatsedge): 1; controlling effect on nutgrass flatsedge (nutgrass flatsedge; [17]): 1
2 | COc1ccccc1C(=O)NCc1cc(F)cc(F)c1 [Compound A03, N-(3,5 difluorobenzyl)-2-methoxybenzamide] | 1 | 1 | 1 | 1 | 2 (equivalent to 0 to 2.5% of the weed in the blank control area) | 2 (equivalent to 0 to 2.5% of the weed in the blank control area) | 1 | 1 | 2 (equivalent to 0 to 2.5% of the weed in the blank control area) | 1 | 1 | 1 | 1 | 2 (equivalent to 0 to 2.5% of the weed in the blank control area) | 2 (equivalent to 0 to 2.5% of the weed in the blank control area) | 1 | 2 (equivalent to 0 to 2.5% of the weed in the blank control area) | 1 | 2 (equivalent to 0 to 2.5% of the weed in the blank control area) | 1 | Post-emergence weed control effect, Barnyard grass (Barnyard grass [14]): 1; Post-emergence weed control effect, Chenopodium album (Chenopodium album): 1; Post-emergence weed control effect, Convolvulus arvensis (Convolvulus arvensis): 1; Post-emergence weed control effect, Digitaria sanguinalis (Digitaria sanguinalis [15]): 1; Post-emergence weed control effect, Portulaca oleracea (Portulaca oleracea): 1; Post-emergence weed control effect, Solanum nigrum (Solanum nigrum): 1; Post-emergence weed control effect, Goose grass (goosegrass): 2 (equivalent to 0 to 2.5% of the weed in the blank control area); Post-emergence weed control effect, Green bristlegrass (green bristlegrass [16]): 2 (equivalent to 0 to 2.5% of the weed in the blank control area); Post-emergence weed control effect, Nutgrass flatsedge (nutgrass flatsedge): 2 (equivalent to 0 to 2.5% of the weed in the blank control area)
